Data taken from patent publication US8343945B2, “Carriers, formulations, methods for formulating unstable active agents for external application and uses thereof” (Foamix Ltd., priority 2007, dated 2013).
Where two headings read alike, the source gives them in different places.

What was measured:
[1] = cited from earlier work
[2] = From the text: In one or more embodiments of the present disclosure, the foamable composition includes a potent solvent, in addition to or in place of one of the hydrophobic solvents, polar solvents or emollients of the composition. A potent solvent is a solvent other than mineral oil that solubilizes a specific active agent substantially better than a hydrocarbon solvent such as mineral oil or petrolatum.
[3] = cited from earlier work; remark: listed apart in the source
[4] = powder for IV administration reconstituted with sterile water for injection; cited from earlier work
[5] = Doxycycline Monohydrate compatibility test with excipients; format: physicochemical; details: for Compatibility with Doxycycline Monohydrate: Summary, compatibility tested after the storage for up to 3 weeks
Protocol: Different compositions of hydrophilic and hydrophobic solvents containing Doxycycline Hyclate (Set I and Set II) and Doxycycline Monohydrate (Set III) were prepared by weighing the antibiotic in a glass vial and shaking overnight with each solvent investigated. Mixtures of Doxycycline salts 1.04% w/w with solid excipients were prepared in a similar way as for Minocycline HCl.
A similar compatibility test was performed on another form of Doxycycline-Doxycycline Monohydrate. Table 17b and Table 18.

[6] = Minocycline in hydrophilic vehicles dried with Magnesium Sulphate; format: physicochemical; details: vehicle dried by the Magnesium Sulfate procedure
Protocol: A special procedure for drying of water residues was developed. Magnesium Sulphate was added to the glass beaker filled with one of the hydrophilic vehicles. The mixture was stirred during overnight and centrifuged the following morning. Clear supernatant was collected in a separate vessel and stored in a dessicator.
The following were tested using the above procedure: mixtures of Minocycline with PEG 200, PEG 400, glycerol, prolylene glycol, polyethylene glycol.

[7] = Doxycycline Hyclate compatibility test with excipients; format: physicochemical; details: for Compatibility with Doxycycline Hyclate: Summary, compatibility tested after the storage for up to 3 weeks
Protocol: Different compositions of hydrophilic and hydrophobic solvents containing Doxycycline Hyclate (Set I and Set II) and Doxycycline Monohydrate (Set III) were prepared by weighing the antibiotic in a glass vial and shaking overnight with each solvent investigated.
Group II included Doxycycline Hyclate mixed with various vehicles with addition of antioxidants like alpha tocopherol, butylated hydroxytolyene (BHT), ascorbic acid.

[8] = Minocycline HCl compatibility tests with excipients (colour change, HPLC assay); format: physicochemical; details: for Compatibility with Minocycline HCL: Summary, compatibility tested after the storage for up to 3 weeks
Protocol: About 0.5 g foam or pre-foam formulation is dissolved with diluent (65% phosphate buffer: 35% Acetonitrile (ACN)) in a 25 mL volumetric flask. The sample is shaken […] on an inverted shaker stand for 10 min at room temperature. The resulting suspension is centrifuged for 5 minutes at 4000 rpm. The supernatant is separated by vacuum pump and filtered thereafter through a 0.45 μm PTFE+GL filter. The first few drops of the filtrate are discarded. The resultant clear solution layer is analyzed by HPLC using columnRP-8. The content of MCH is calculated against an MCH standard 0.4 mg/mL (concentration). The content of 4-epiminocycline is calculated against MCH standard 0.02 mg/mL (concentration).
Color is tested by visual observation and in particular by comparison to “Pantone® formula guide solid uncoated” colors. […] Minocycline changes color to orange/greenish with oxidation or complexation. These oxidized colors are not desirable. Colors such as 609U/608U/610U are indicative of degradation by the tetracycline antibiotic.
For convenience the excipients were divided into four different groups (I-IV).
Different compositions of hydrophilic and hydrophobic solvents containing minocycline HCl were prepared by weighing the antibiotic in a glass vial and shaking overnight with each solvent investigated (Group I and II).
Mixtures of Minocycline HCl with solid excipients like titanium dioxide, stearyl alcohol, myristyl alcohol etc were prepared by suspending Minocycline HCl in oil with stirring and then adding the solid ingredient as a powder with stirring at room temperature (Group III an IV).
Oxidation of minocycline after the storage at various temperatures was detected by color change. Assay for content of the active pharmaceutical ingredient (API) and degradation product (4-epiminocycline) was determined in some samples.
A series of experiments were performed to evaluate which mixture of components/ingredients were compatible or incompatible with minocycline. Each component or combinations of components were mixed with either 1.1% or 2.2% Minocycline HCl. The glass vials containing the formulations were wrapped in aluminum—and were subjected to a range of temperatures 25° C.; 30° C.; 40° C.; 50 C; for between one week to about 3 weeks. The best results are shown as “compatible no oxidation”.

[9] = waterless medium with alpha-tocopherol and ascorbic acid

Compound: C[C@H]1c2cccc(O)c2C(=O)C2=C(O)[C@]3(O)C(=O)C(C(N)=O)=C(O)[C@@H](N(C)C)[C@@H]3[C@@H](O)[C@@H]21 [doxycycline monohydrate]
- Solubility in alcohol [1]: sparingly soluble
- Solubility in water [1]: very slightly soluble

Compound: CCCC(=O)O[C@]1(C(=O)CO)CC[C@H]2[C@@H]3CCC4=CC(=O)CC[C@]4(C)[C@H]3[C@@H](O)C[C@@]21C [Hydrocortisone butyrate]
- Solubility in glycofurol [2]: more than 1%
- Solubility in mineral oil [2]: < 0.01%

Compound: Doxycycline hyclate
- Solubility in alcohol [1]: slightly soluble
- Solubility in solutions of alkali hydroxides and carbonates ([1]; solutions of alkali hydroxides and carbonates): soluble
- Solubility in water [1]: soluble
- IV solution stable for ([3]; 0.1-1 mg/mL in 0.9% sodium chloride or 5% dextrose, 25° C.): 48 h
- IV solution stable for ([3]; 0.1-1 mg/mL in Ringer's, 10% invert sugar, Normosol or Plasma-Lyte in dextrose, room temperature): 12 h
- IV solution must be infused within ([3]; 0.1-1 mg/mL in lactated Ringer's injection or 5% dextrose in lactated Ringer's): ≤ 6 h
- IV solution stable for ([3]; 2-8° C., protected from direct sunlight and artificial light): 72 h
- pH of solution [4]: 1.8-3.3

Compound: OCC(O)CO [Glycerol]
- Compatibility with Doxycycline Monohydrate [5]: No
- Oxidation of Minocycline HCL after dissolution in dried vehicle [6]: oxidized quickly
- Compatibility with Doxycycline Hyclate [7]: No
- Compatibility with Minocycline HCl [8]: intensive oxidation
- Compatibility with Minocycline HCL [8]: No

Compound: Cc1ncc([N+](=O)[O-])n1CCO [Metronidazole]
- Solubility in dimethyl isosorbide [2]: more than 1%
- Solubility in mineral oil [2]: < 0.01%

Compound: CCCCC(=O)O[C@]1(C(=O)CO)[C@@H](C)C[C@H]2[C@@H]3CCC4=CC(=O)C=C[C@]4(C)[C@@]3(F)[C@@H](O)C[C@@]21C [Betamethasone valerate]
- Solubility in glycofurol [2]: more than 1%
- Solubility in mineral oil [2]: < 0.01%

Compound: CC(=O)N1CCN(c2ccc(OCC3COC(Cn4ccnc4)(c4ccc(Cl)cc4Cl)O3)cc2)CC1 (stereo not drawn) [Ketoconazole]
- Solubility in dimethyl isosorbide [2]: more than 1%
- Solubility in glycofurol [2]: more than 1%
- Solubility in mineral oil [2]: < 0.01%
- Solubility in propylene glycol [2]: more than 1%

Compound: CC(=O)[C@H]1CC[C@H]2[C@@H]3CCC4=CC(=O)CC[C@]4(C)[C@H]3CC[C@]12C [Progesterone]
- Solubility in mineral oil [2]: < 0.001%

Compound: CC(O)CO (stereo not drawn) [Propylene glycol]
- Compatibility with Doxycycline Monohydrate [5]: No
- Oxidation of Doxycycline Monohydrate despite added anti oxidants [5, 9]: did not prevent the oxidation
- Oxidation of Minocycline HCL after dissolution in dried vehicle [6]: oxidized quickly
- Compatibility with Doxycycline Hyclate [7]: No
- Oxidation of Doxycycline Hyclate despite added anti oxidants [7, 9]: did not prevent the oxidation
- Compatibility with Minocycline HCL [8]: No
- Oxidation of Minocycline HCL despite added anti oxidants [8, 9]: did not prevent the oxidation
